# In patent US8975015B2, “Antimicrobial compounds” (priority 2009, dated 2015):
# How the values were obtained:
# Experiment in all cases: microbe, parasite or virus in culture
# [1] = test system: strains of TB that are resistant to Isoniazid; assay type: cell-based; conditions: Mycobacterium tuberculosis
# non-replicating TB = assay type: cell-based, Mycobacterium tuberculosis
# [2] = test system: Mycobacterium tuberculosis (replicating TB); assay type: cell-based
# [3] = test system: strains of TB that are resistant to Rifampin; assay type: cell-based; conditions: Mycobacterium tuberculosis
# [4] = test system: strains of TB that are resistant to Kanamycin; assay type: cell-based; conditions: Mycobacterium tuberculosis
smiles,measurement,setting,value
"O=C1C=Cc2nocc2/C1=C1/Nc2ccccc2C1=O [Example P1, 4-(3-oxoindolin-2-ylidene)benzo[c]isoxazol-5(4H)-one]",MIC,[1],0.138 µg/mL
same,MIC LORA,non-replicating TB,1.833 µg/mL
same,MIC MABA,[2],0.15 µg/mL
same,MIC,[3],0.239 µg/mL
same,MIC,[4],0.148 µg/mL
